Experimental findings from a melting point compilation (Tetko et al.; mined from patent text by program, amines drawn as free bases though some values may be those of a salt) are described below.

In turn, `COc1ccc2cc(-c3csc(Cc4c(Cl)cccc4Cl)n3)ccc2c1` returned a melting point of 136 to 138 °C. In the case of `CCOc1ccc(S(=O)(=O)N2CCN(C)CC2)cc1C#N` it was 130 to 131 °C. In the case of `CCn1nc(-c2ccc(F)cc2)c(-c2ccc(S(C)(=O)=O)cc2)cc1=O` it was 177 to 179 °C; in that of `CCOC(=O)c1nc2ccc(Cl)cc2c(=O)[nH]1`, 249 to 251 °C. The value for `CC1(C)OC(c2ccc(S(C)(=O)=O)c(F)c2)=C(c2cccc(Cl)c2)C1=S` was 105 to 106 °C; that for `O=C(NCCCCCCOC(=O)N1CCC2(CCCC2)CC1)OC1CCN(C(=O)Oc2ccc(Oc3ccccc3)cc2)CC1` was 83 to 85 °C; that for `Nc1nc(-c2ccc([N+](=O)[O-])o2)ns1` was 168 to 170 °C. For the compound `O=C(NCC(C=C1CCCCC1[N+](=O)[O-])=NO)c1cccnc1` (centres undefined), the melting point lay in the range of 149 to 151 °C. In the case of `CCCCCCCCCCCCCCOc1ccc(OC(=O)N(C)Cc2ccccn2)cc1` it was 67 to 68 °C; in that of `COc1cc(S(N)(=O)=O)cnc1Cl`, 156 to 158 °C. In the case of `CCCCOc1ccc(CCCOC(=O)NS(=O)(=O)NCCOC(C)C)c(Oc2ncc(C(F)(F)F)cc2Cl)c1` it was 91.4 to 91.6 °C; in that of `COc1ccc(C(=O)[C@H]2CC=CC[C@H]2C(=O)O)cc1OC` (relative stereo), 110 to 112 °C; in that of `CN(C)c1ccc(N=Nc2ccccc2C(=O)NCCN)cc1`, 119 to 124 °C.

`COC(=O)C1Cc2c([nH]c3ccccc23)C(C)N1Cc1ccccc1` (centres undefined) returned a melting point of 143 to 144 °C. In the case of `Cc1c(Cl)cccc1S(=O)(=O)Nc1ccc2nc(C)n(CCO)c2c1` it was 213 to 214 °C.

With `Cc1oc(-c2ccccc2)nc1COc1ccc(COc2ncccc2C=CC(=O)O)cc1`, the melting point was in the range of 174 to 175 °C.

In the case of `COC(=O)C(CC(C)C)NC(=O)C(C)NC(=O)OCc1ccccc1` (centres undefined), the melting point lay within 65 to 68 °C. The value for `CSc1ccc(-n2cnc3ccc(-c4nnc(CCc5cccc(C(F)(F)F)c5)o4)cc32)cc1` was 167 to 168 °C; that for `C[C@H](NC(=O)CCC1CCC(=O)N1)C(=O)O` (some centres undefined) was 174 to 179 °C.

Turning to `CNC(=O)[C@H]1CN(c2cc(F)c3c(c2)CCC(=O)N3C)C(=O)O1`, the melting point was 264 to 265 °C. `CNC(=O)C(C#N)C(=O)Nc1ccc(C(F)(F)F)cc1` (centres undefined) gave a melting point of 184 to 186 °C.

Consider `CNCc1ccc2oc(-c3ccccc3C#N)c(Br)c2c1`, for which the melting point was found to be 114 °C. In the case of `C1=C(c2c[nH]c3ncccc23)CCN(CCOc2cccc3ncccc23)C1` it was 202 to 205 °C. In turn, `CCc1nc2c(C)nc(C)nc2n1-c1ccc(CCOC(=O)NS(=O)(=O)c2ccc(C)cc2)cc1` showed a melting point of 162 °C. The value for `CC(=O)Nc1cccc2c1S(=O)(=O)C(C)C2` (centres undefined) was 115 to 117 °C; that for `COc1ccccc1N1CCN(CCOc2ccc(-c3cn4ccccc4n3)cc2)CC1` was 151 to 153 °C; that for `C=CCc1cc(OCCOC)ccc1OCC1(O)CN2CCC1CC2` (centres undefined) was 58 to 60 °C.

`O=C(NCCN1CCN(C(c2ccccc2)c2cccnc2)CC1)C1CSC(c2cccnc2)N1` (centres undefined) showed a melting point of 130 to 131 °C. As to `COc1ccc2c(c1)C13CCN(C)C(C2)C1(OC)CCC(=O)C3` (centres undefined), the melting point is 152 to 156 °C. The value for `O=C1N(Cc2cccc(-c3noc(C(F)(F)F)n3)c2)c2ccccc2C12COc1cc3c(cc12)CCO3` (centres undefined) was 182 to 188 °C; that for `COC(=O)NCCc1ccc(OCC(O)CNC(C)C)nc1` (centres undefined) was 97 to 99 °C; that for `CCCCOc1cc(C(=O)N(C)C)cc(S(N)(=O)=O)c1Cc1ccccc1` was 199 to 201 °C. In turn, `CCOC(=O)c1[nH]c2ccc(Cl)cc2c1-c1ccccc1F` came in with a melting point of 191 to 193 °C. The value for `Cc1c(Cc2ccc([N+](=O)[O-])cc2)c(=O)oc2cc(OCc3nnn[nH]3)cc(OCc3nnn[nH]3)c12` was 240 to 244 °C; that for `CCC(=O)NC1=NN(c2ccccc2)C(C)C1` (centres undefined) was 96 to 96.5 °C. The compound `Cc1cc(C)cc(Nc2ccc(Nc3ccccc3)c3c2C(=O)c2ccccc2C3=O)c1` gave a melting point of 220 °C. As to `CCc1cccc(C)c1COc1cc(C(=O)OC)cc2c1nc(C)n2C`, the melting point was found to be 157 °C. The value for `C=CCc1cc2c(cc1OCC=Cc1ccccc1)CCC(=O)N2CC=Cc1ccccc1` was 88 to 89 °C; that for `OCCN(c1ccccc1)c1ccccc1` was 109 to 110 °C. On to `CNC(=O)c1ccc(-c2cnc3[nH]c(=O)n(CC4CCOCC4)c3n2)cc1`, for which the melting point fell in the range of 328 to 330 °C. As to `O=S(=O)(CCCl)CCCS(=O)(=O)CCCl`, the melting point fell in the range of 142 to 146 °C. In the case of `O=C(O)CC(c1ccccc1)C(F)(F)F` (centres undefined) it was 72 °C; in that of `O=C(Nc1ccc(-c2ccnc3c(C(=O)c4cccs4)cnn23)s1)c1ccccc1`, 162 to 165 °C; in that of `O=C(/C=C/c1cccnc1)NCCc1cccc(OCc2ccccc2)c1`, 115 to 116 °C. The value for `Nc1ncnc2c1cnn2C1OC(CO)C(O)C1O` (centres undefined) was 253 °C; that for `Cc1nc2n(CCN3CCOCC3)c3ccccc3n2c1C(=O)c1ccc(Cl)cc1` was 147 to 148 °C; that for `CCCc1cc(C)nc(-c2cccc(Oc3ccccc3Cl)n2)n1` was 73.7 °C. In the case of `CC(=O)c1cc2c(cc1F)OC(C)(C)[C@@H](O)[C@@H]2NC(=O)c1ccc(F)cc1` (relative stereo) it was 200 to 203 °C; in that of `CCN(CC)C(=O)CCc1nc(-c2cccc(OC)c2)nc2ccccc12`, 87 °C. Turning to `CCc1cc(CC)c(-c2c(OCS(C)(=O)=O)c(C)nn(C)c2=O)c(CC)c1`, the melting point was in the range of 142 to 143 °C. Compound `O=C(O)Cc1ccc(-c2cn3ccccc3n2)cc1` showed a melting point of 217 to 221 °C. The value for `CNc1nc(C)c(-c2nc3ccccc3c(=O)n2-c2ccc(Cl)cc2)s1` was 195 to 197 °C. The value for `O=C(c1ccccc1NCc1ccncc1)[NH+]([O-])c1cc2ccccc2cn1` (centres undefined) was 212 °C; that for `COc1ccc(CNc2nc(SC)ncc2C(=O)CP(=O)(OC)OC)cc1Cl` was 104 to 105 °C. In the case of `N#CC=Cc1ccc(F)cc1` it was 64 to 65 °C; in that of `CC(C)(C)c1ccc2c(c1)OCC(NNc1ncnc3c1ncn3C1OC(CO)C(O)C1O)C2` (centres undefined), 88 to 90 °C; in that of `O=C(O)C(Cl)=C(Cl)C(O)=NCCCc1ccc(Cl)cc1`, 72 to 73 °C. `Cn1ccc(N)cc1=O` registered a melting point of 200 to 202 °C. The value for `NCC(=O)Nc1ccc(Cl)cc1C(=O)c1c(F)cccc1F` was 133 to 135 °C; that for `CN1C(=O)CN=C(c2ccccc2)c2ccccc21` was 151 to 154 °C; that for `CC(C)NC(=O)OCC(=O)c1ccc(Cl)cc1` was 163 to 164 °C.

In turn, `O=C(O)COc1cccc2c1CCc1sc(SCC=Cc3ccccc3)nc1-2` registered a melting point of 171 to 172 °C. On to `CC(=O)Nc1ccc(-c2c(Cl)c(CN3C(=O)CCC3=O)nc3sc4c(c23)CCNC4)cc1`, for which the melting point was 300 °C. In the case of `CC(=O)N[C@H]1CC[C@H](CCN2CCN(c3nccc4ccoc34)CC2)CC1` it was 157 °C; in that of `N#CCN1CC[C@@H](NCc2ccccc2)[C@H](O)C1` (relative stereo), 113 °C; in that of `CCCC[C@H](NC(=O)[C@H](CC(C)C)NC(=O)c1ccccc1C(F)(F)F)C(=O)CSCc1ccco1`, 102 to 106 °C.

As for `CCCN(CCC)C(=O)n1cnc(S(=O)C(C)C)n1` (centres undefined), the melting point was 15 to 20 °C.

`CC(C)(C)NS(=O)(=O)c1cccc(NC(=O)c2cnn3c(C4CC4)cc(-c4ccc(Cl)cc4)nc23)c1` yielded a melting point of 238 to 239 °C.

With `c1cc2c(c(-c3nc4ncccc4o3)c1)CCCC2`, the melting point was 87 to 90 °C. In the case of `Cc1nc(Cl)c2ncn(-c3ccc(C(C)C)cc3Br)c2n1` it was 49 to 52 °C; in that of `CSC1=Nc2ccccc2Sc2nccn21`, 116 to 118 °C. In the case of `CC(C)(OCc1nn(C2CCCc3ccccc32)c2ccccc12)C(=O)O` (centres undefined) it was 132 to 134 °C; in that of `CC(C)(C)NCC(O)c1ccc(N)c(C#N)c1Cl` (centres undefined), 85 to 88 °C. The value for `Cn1c(=N)c(C(=O)NCCN2CCOCC2)c(O)c2cc(Cl)ccc21` was 211 to 213 °C.

In turn, `O=[N+]([O-])c1ccc(SNc2nccs2)c(C(Cl)(Cl)Cl)c1` gave a melting point of 165 °C. Take `O=C(O)Cc1ccc(OCCCc2cc(-c3ccc(C(F)(F)F)cc3)no2)cc1`: the melting point lay in the range of 127 to 128 °C. In the case of `Nc1nc2c(ncn2COCCOCCO)c(=O)[nH]1` it was 184 to 187 °C. `O=C(O)Cc1c(C(=O)c2cc3c(cn2)CCCC3)[nH]c2cc(Cl)ccc12` displayed a melting point of 225 °C. The value for `ClCCCSc1nnnn1-c1ccccc1` was 33 to 34 °C.

In turn, `Cc1c(C(=O)Nc2ccc(N3CCC(N(C)C)CC3)c(C#N)c2)cnn1-c1ccc(Cl)cc1` came in with a melting point of 210 to 213 °C.

Compound `Cc1ccccc1NC(=O)C=CC=CC1(F)CC1c1ccc(Br)c(Br)c1` (centres undefined) showed a melting point of 174 to 176 °C. The value for `Cc1c(N2CCN(C=O)C(C)C2)c(F)cc2c(=O)c(C(=O)O)cn(C3CC3)c12` (centres undefined) was 236 to 239 °C; that for `O=c1c2cc3nnn(C4CC4)c(=O)c3cc2ncn1CCn1ncnn1` was 194 to 195 °C; that for `N#Cc1ccc(-c2cnc3[nH]c(=O)n(CC4CCCCC4)c3n2)cc1` was 255 to 257 °C. In the case of `O=C1c2c(O)cccc2OC12CC2` it was 100 to 109 °C.

For the compound `CCCCc1nc2cccc(C(=O)OC)c2n1Cc1ccc(-c2c(C#N)cnc3ccccc23)cc1`, the melting point fell in the range of 103 to 104 °C. The value for `c1ccc(-c2ncc(N3CCCC3CCCCOC3CCCCO3)nc2-c2ccccc2)cc1` (centres undefined) was 94 to 96 °C; that for `O=c1[nH]c(=O)c2ccc(C(c3ccccc3)n3ccnc3)cc2[nH]1` (centres undefined) was 287 °C. In the case of `CN(C(=O)c1ccc2c(c1)nc(NC(=O)c1cccs1)n2CCCC(=O)O)C1CCCCC1` it was 256 to 258 °C.
